From the kinase profiling compilation of Christmann-Franck et al. (2016)

Assays:
[1] = biological target: MAP2K7 (human) (UniProt O14733); assay: KINOMEscan competition binding; settings: compound 10.0 µM
[2] = biological target: MKNK2 (human) (UniProt Q9HBH9); assay: KINOMEscan competition binding
[3] = biological target: CDK16 (human) (UniProt Q00536); assay: KINOMEscan competition binding; settings: compound 10.0 µM
[4] = biological target: MUSK (human) (UniProt O15146); assay: KINOMEscan competition binding; settings: compound 10.0 µM
[5] = biological target: SGK110 (human) (UniProt P0C264); assay: KINOMEscan competition binding; settings: compound 10.0 µM
Chain of SGK110 (human) (P0C264 whole entry, looked up): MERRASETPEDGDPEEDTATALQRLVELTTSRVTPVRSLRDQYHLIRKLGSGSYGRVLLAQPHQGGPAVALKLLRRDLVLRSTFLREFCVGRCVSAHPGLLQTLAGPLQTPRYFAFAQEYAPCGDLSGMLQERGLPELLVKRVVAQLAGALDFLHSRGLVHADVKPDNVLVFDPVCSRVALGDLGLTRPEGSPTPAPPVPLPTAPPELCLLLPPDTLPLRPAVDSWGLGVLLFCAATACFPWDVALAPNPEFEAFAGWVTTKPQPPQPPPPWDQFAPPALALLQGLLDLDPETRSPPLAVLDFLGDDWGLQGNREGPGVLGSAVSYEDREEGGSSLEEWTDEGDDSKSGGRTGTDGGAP

[6] = biological target: CAMK2A (human) (UniProt Q9UQM7); assay: KINOMEscan competition binding; settings: compound 10.0 µM
[7] = biological target: EPHB2 (human) (UniProt P29323); assay: KINOMEscan competition binding; settings: compound 10.0 µM
[8] = biological target: STK25 (human) (UniProt O00506); assay: KINOMEscan competition binding; settings: compound 10.0 µM
[9] = biological target: KDR (human) (UniProt P35968); assay: KINOMEscan competition binding; settings: compound 10.0 µM
[10] = biological target: PRKACA (human) (UniProt P17612); assay: KINOMEscan competition binding; settings: compound 10.0 µM
[11] = test system: PIK3CA (human), P42336 [H1047Y]; assay: KINOMEscan competition binding; settings: compound 10.0 µM
[12] = biological target: LTK (human) (UniProt P29376); assay: KINOMEscan competition binding; settings: compound 10.0 µM
[13] = biological target: MAP2K5 (human) (UniProt Q13163); assay: KINOMEscan competition binding; settings: compound 10.0 µM
[14] = biological target: FGR (human) (UniProt P09769); assay: KINOMEscan competition binding; settings: compound 10.0 µM
[15] = biological target: PLK3 (human) (UniProt Q9H4B4); assay: KINOMEscan competition binding; settings: compound 10.0 µM
[16] = biological target: EPHB3 (human) (UniProt P54753); assay: KINOMEscan competition binding; settings: compound 10.0 µM
[17] = biological target: ALK (human) (UniProt Q9UM73); assay: KINOMEscan competition binding; settings: compound 10.0 µM
[18] = biological target: MARK3 (human) (UniProt P27448); assay: KINOMEscan competition binding; settings: compound 10.0 µM
[19] = biological target: NEK9 (human) (UniProt Q8TD19); assay: KINOMEscan competition binding; settings: compound 10.0 µM
[20] = biological target: CLK2 (human) (UniProt P49760); assay: KINOMEscan competition binding; settings: compound 10.0 µM
[21] = biological target: NEK11 (human) (UniProt Q8NG66); assay: KINOMEscan competition binding; settings: compound 10.0 µM
[22] = biological target: STK10 (human) (UniProt O94804); assay: KINOMEscan competition binding; settings: compound 10.0 µM
[23] = biological target: PAK3 (human) (UniProt O75914); assay: KINOMEscan competition binding; settings: compound 10.0 µM
[24] = biological target: MAP4K4 (human) (UniProt O95819); assay: KINOMEscan competition binding; settings: compound 10.0 µM
[25] = biological target: FLT3 (human) (UniProt P36888); assay: KINOMEscan competition binding; settings: compound 10.0 µM
[26] = biological target: CAMK2B (human) (UniProt Q13554); assay: KINOMEscan competition binding; settings: compound 10.0 µM
[27] = biological target: PLK4 (human) (UniProt O00444); assay: KINOMEscan competition binding
Chain of PLK4 (human) (O00444 whole entry, looked up): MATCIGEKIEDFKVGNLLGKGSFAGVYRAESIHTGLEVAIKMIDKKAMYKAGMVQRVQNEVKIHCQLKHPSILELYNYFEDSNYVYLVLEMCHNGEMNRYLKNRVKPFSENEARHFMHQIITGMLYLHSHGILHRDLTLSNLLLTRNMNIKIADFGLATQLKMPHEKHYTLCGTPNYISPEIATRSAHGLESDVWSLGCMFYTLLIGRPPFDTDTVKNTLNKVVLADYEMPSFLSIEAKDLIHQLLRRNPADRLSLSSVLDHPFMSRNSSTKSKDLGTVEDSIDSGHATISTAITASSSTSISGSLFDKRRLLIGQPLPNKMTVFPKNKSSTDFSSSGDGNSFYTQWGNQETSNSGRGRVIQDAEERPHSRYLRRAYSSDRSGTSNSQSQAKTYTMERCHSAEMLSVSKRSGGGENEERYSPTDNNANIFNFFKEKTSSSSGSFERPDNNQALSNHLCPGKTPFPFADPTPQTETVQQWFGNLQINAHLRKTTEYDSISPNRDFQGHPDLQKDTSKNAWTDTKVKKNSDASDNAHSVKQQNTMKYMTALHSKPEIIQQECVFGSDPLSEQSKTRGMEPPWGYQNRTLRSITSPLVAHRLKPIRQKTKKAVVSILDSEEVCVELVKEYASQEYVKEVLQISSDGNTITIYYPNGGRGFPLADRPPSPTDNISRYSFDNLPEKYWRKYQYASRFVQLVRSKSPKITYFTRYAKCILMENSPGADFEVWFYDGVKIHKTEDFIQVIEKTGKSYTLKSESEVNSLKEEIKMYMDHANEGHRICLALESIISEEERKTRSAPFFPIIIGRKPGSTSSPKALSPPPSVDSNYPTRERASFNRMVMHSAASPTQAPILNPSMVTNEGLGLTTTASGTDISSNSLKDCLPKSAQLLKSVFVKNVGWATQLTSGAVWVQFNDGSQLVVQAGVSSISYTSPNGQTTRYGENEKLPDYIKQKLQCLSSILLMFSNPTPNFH

[28] = test system: PIK3CA (human), P42336 [E542K]; assay: KINOMEscan competition binding; settings: compound 10.0 µM
[29] = biological target: MINK1 (human) (UniProt Q8N4C8); assay: radiometric filter-binding kinase assay
[30] = biological target: EEF2K (human) (UniProt O00418); assay: radiometric filter-binding kinase assay
Chain of EEF2K (human) (O00418 whole entry, looked up): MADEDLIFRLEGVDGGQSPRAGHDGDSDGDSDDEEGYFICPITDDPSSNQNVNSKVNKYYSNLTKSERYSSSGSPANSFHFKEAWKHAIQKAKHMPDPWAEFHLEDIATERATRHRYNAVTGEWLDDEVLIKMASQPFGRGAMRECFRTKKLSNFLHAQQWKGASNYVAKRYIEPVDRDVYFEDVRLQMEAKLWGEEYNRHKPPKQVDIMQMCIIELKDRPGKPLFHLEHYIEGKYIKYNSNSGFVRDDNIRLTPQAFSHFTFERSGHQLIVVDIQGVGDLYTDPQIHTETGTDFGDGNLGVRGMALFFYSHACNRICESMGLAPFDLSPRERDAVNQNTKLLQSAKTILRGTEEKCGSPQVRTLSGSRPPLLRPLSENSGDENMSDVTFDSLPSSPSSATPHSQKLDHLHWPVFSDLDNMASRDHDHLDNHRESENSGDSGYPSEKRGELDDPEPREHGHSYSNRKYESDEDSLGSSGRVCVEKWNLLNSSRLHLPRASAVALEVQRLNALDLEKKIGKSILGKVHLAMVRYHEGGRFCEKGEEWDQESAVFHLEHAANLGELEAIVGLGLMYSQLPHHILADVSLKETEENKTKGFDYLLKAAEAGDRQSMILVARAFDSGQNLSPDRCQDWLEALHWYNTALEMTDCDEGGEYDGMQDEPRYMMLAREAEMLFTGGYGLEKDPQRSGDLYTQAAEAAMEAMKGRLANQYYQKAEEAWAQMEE

[31] = biological target: CHEK2 (human) (UniProt O96017); assay: radiometric filter-binding kinase assay
Chain of CHEK2 (human) (O96017 whole entry, looked up): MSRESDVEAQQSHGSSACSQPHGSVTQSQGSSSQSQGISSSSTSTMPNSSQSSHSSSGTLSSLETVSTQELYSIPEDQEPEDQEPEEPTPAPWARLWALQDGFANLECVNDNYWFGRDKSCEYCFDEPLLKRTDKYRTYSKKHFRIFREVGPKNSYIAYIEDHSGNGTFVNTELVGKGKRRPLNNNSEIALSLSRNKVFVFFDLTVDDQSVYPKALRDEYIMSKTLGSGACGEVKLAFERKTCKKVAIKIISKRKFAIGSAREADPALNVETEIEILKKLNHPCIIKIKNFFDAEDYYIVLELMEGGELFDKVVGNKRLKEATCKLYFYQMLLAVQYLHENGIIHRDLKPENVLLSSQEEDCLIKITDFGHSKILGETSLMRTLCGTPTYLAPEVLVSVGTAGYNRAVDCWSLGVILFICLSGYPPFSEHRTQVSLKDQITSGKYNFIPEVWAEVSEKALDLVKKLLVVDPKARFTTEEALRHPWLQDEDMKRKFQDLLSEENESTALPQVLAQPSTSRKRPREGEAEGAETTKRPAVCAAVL

[32] = biological target: PRKACA (human) (UniProt P17612); assay: radiometric filter-binding kinase assay
[33] = biological target: PAK6 (human) (UniProt Q9NQU5); assay: radiometric filter-binding kinase assay
Chain of PAK6 (human) (Q9NQU5 whole entry, looked up): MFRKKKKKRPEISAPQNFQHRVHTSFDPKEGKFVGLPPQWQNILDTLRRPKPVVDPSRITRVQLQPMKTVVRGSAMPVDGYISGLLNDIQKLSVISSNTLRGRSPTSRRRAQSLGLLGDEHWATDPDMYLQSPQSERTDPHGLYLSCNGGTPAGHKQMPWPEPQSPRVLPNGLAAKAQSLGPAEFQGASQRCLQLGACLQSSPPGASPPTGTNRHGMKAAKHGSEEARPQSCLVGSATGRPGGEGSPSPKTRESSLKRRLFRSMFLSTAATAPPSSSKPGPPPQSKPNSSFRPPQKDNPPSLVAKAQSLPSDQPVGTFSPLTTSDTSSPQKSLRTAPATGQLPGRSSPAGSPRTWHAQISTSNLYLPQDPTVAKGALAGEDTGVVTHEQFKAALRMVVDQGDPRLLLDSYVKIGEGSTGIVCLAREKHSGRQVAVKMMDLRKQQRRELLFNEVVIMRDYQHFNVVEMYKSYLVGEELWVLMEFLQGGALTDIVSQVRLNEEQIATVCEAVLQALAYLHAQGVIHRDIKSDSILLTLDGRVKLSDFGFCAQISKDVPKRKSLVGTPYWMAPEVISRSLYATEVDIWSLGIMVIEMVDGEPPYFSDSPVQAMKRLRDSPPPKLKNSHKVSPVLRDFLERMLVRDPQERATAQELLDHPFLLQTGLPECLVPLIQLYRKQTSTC

[34] = biological target: GSK3B (human) (UniProt P49841); assay: radiometric filter-binding kinase assay
Chain of GSK3B (human) (P49841 whole entry, looked up): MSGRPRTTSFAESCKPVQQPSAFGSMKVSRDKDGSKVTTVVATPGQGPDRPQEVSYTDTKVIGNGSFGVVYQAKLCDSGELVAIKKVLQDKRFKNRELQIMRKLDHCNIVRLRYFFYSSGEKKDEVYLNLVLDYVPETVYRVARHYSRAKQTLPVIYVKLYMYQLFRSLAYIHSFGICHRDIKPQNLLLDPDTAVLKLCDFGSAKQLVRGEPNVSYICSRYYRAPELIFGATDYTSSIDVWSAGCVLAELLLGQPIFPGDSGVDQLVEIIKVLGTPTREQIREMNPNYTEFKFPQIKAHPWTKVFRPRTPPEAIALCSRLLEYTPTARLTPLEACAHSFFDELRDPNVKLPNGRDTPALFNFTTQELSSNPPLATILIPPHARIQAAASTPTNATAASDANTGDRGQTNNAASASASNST

[35] = biological target: EPHB4 (human) (UniProt P54760); assay: radiometric filter-binding kinase assay
[36] = biological target: CSNK2A1 (human) (UniProt P68400); assay: radiometric filter-binding kinase assay
[37] = biological target: MAPK14 (human) (UniProt Q16539); assay: radiometric filter-binding kinase assay
Chain of MAPK14 (human) (Q16539 whole entry, looked up): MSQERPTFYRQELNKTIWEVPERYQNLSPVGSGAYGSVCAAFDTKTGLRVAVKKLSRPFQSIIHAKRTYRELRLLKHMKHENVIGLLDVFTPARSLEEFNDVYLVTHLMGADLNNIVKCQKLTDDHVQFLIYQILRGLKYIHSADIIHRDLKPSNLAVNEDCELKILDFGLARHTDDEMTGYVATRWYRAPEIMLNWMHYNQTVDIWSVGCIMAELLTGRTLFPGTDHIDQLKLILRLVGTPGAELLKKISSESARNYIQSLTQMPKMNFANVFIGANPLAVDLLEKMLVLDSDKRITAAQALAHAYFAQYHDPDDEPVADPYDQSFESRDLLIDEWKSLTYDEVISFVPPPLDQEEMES

[38] = biological target: EPHA4 (human) (UniProt P54764); assay: radiometric filter-binding kinase assay
Chain of EPHA4 (human) (P54764 whole entry, looked up): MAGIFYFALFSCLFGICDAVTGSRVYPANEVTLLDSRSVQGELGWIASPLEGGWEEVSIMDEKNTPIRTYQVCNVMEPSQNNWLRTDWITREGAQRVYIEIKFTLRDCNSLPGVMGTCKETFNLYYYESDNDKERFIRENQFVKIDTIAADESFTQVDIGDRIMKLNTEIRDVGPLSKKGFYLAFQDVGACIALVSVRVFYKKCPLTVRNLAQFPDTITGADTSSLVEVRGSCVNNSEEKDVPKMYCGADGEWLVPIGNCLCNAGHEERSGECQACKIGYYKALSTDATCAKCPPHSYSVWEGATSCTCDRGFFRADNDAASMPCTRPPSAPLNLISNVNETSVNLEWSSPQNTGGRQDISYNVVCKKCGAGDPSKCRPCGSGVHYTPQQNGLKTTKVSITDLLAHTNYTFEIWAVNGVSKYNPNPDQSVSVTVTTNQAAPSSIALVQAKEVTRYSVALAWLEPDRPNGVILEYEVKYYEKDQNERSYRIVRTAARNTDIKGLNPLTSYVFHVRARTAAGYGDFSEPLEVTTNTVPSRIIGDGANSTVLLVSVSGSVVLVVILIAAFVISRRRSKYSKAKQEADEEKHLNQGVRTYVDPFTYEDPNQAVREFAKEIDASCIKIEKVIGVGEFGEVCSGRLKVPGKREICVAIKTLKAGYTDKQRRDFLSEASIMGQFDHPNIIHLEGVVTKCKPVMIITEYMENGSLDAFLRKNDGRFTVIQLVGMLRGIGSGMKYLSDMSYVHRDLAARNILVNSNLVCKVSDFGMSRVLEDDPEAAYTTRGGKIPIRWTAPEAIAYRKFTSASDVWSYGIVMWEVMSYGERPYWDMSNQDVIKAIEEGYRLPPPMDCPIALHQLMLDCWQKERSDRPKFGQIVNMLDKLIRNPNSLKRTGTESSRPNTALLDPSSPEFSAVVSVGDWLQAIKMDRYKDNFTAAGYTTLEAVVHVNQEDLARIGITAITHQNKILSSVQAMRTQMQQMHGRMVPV

For COc1cc(C(=O)N2CCC(N3CCN(C)CC3)CC2)ccc1Nc1ncc2c(n1)N(C)c1ccccc1C(=O)N2C, the kinase still bound, per cent of control [1] was 100%, the Kd [2] was 380 nM and the kinase still bound, per cent of control ([2]; compound 10.0 µM) was 1.2%. For the same molecule, the residual activity [3] was 96%, the kinase still bound, per cent of control [4] was 99% and the kinase still bound, per cent of control [5] was 62%. For the same molecule, the kinase still bound, per cent of control [6] was 21%, the kinase still bound, per cent of control [7] was 100% and the kinase still bound, per cent of control [8] was 68%. For the same molecule, the kinase still bound, per cent of control [9] was 84%, the residual activity [10] was 100% and the kinase still bound, per cent of control [11] was 71%. For the same molecule, the kinase still bound, per cent of control [12] was 32%, the kinase still bound, per cent of control [13] was 85% and the kinase still bound, per cent of control [14] was 84%. For the same molecule, the kinase still bound, per cent of control [15] was 51%, the kinase still bound, per cent of control [16] was 100% and the kinase still bound, per cent of control [17] was 13%. The kinase still bound, per cent of control [18] was 98%, the kinase still bound, per cent of control [19] was 100% and the kinase still bound, per cent of control [20] was 72%. It also gave a kinase still bound, per cent of control [21] of 100%, a kinase still bound, per cent of control [22] of 100% and a kinase still bound, per cent of control [23] of 83%. The kinase still bound, per cent of control [24] was 85%, the kinase still bound, per cent of control [25] was 100% and the kinase still bound, per cent of control [26] was 62%. For the same molecule, the Kd [27] was 16 nM, the kinase still bound, per cent of control ([27]; compound 10.0 µM) was 0% and the kinase still bound, per cent of control [28] was 77%. The residual activity ([29]; compound 1.0 µM) was 99%, the residual activity ([29]; compound 10.0 µM) was 108% and the residual activity ([30]; compound 1.0 µM) was 75%. It also gave a residual activity ([30]; compound 10.0 µM) of 82%, an IC50 [31] of 2000 nM and a residual activity ([31]; compound 1.0 µM) of 38%. It also gave a residual activity ([31]; compound 10.0 µM) of 13%, a residual activity ([32]; compound 1.0 µM) of 79% and a residual activity ([32]; compound 10.0 µM) of 93%. It also gave a residual activity ([33]; compound 1.0 µM) of 94%, a residual activity ([33]; compound 10.0 µM) of 89% and a residual activity ([34]; compound 1.0 µM) of 90%. For the same molecule, the residual activity ([34]; compound 10.0 µM) was 95%, the residual activity ([35]; compound 1.0 µM) was 90% and the residual activity ([35]; compound 10.0 µM) was 107%. It also gave a residual activity ([36]; compound 1.0 µM) of 71%, a residual activity ([36]; compound 10.0 µM) of 80% and a residual activity ([37]; compound 1.0 µM) of 95%. The residual activity ([37]; compound 10.0 µM) was 96%, the residual activity ([38]; compound 1.0 µM) was 88% and the residual activity ([38]; compound 10.0 µM) was 94%.
